Laboratory results as given in ChEMBL document CHEMBL3779783, “Short cationic lipopeptides as effective antibacterial agents: Design, physicochemical properties and biological evaluation” (Bioorg Med Chem, 2016).
In brackets after ≈: the same amount, converted by molar mass. Activity calls are given as the source filed them. The calls are words filed in the database; no cut-off is given here. Starred links: 1 amine or outer side, 2 acyl side, 3 side chain; linkers in the order of their positions; H or OH if unused. Positions of bridges follow the written chain, without caps; N, C: chain ends. Non-standard residues stand in square brackets, D forms with d. Residues, ends and D or L forms follow the SMILES beside them. ξ: configuration not given here. ξGly(decyl) = CCCCCCCCCCC(N)C(=O)O; Suc = O=C(CCC(=O)[*:2])[*:1]

Key:
[1] = Metabolic stability in 0.1 M NH4HCO3 buffer at pH 8.16 assessed as trypsin (unknown origin)-mediated compound degradation after 2 to 12 hrs by RP-HPLC method; format: ADME; conditions: human
Klebsiella pneumoniae [2] = test: Antimicrobial activity against multidrug resistant Klebsiella pneumoniae ATCC 700603 after 24 hrs by M7-A7 method; format: functional; conditions: Klebsiella pneumoniae, 700603, 24 h
Acinetobacter baumannii [3] = test: Antimicrobial activity against Acinetobacter baumannii […] after 24 hrs by M7-A7 method; format: functional
Staphylococcus aureus [4] = test: Antimicrobial activity against clinical isolates of methicillin-resistant Staphylococcus aureus after 24 hrs by M7-A7 method; format: functional
Pseudomonas aeruginosa [5] = test: Antimicrobial activity against Pseudomonas aeruginosa ATCC 27853 after 24 hrs by M7-A7 method; format: functional; conditions: ATCC 27853, 24 h
Staphylococcus aureus [6] = test: Antimicrobial activity against vancomycin-resistant Staphylococcus aureus NARSA VRS1 after 24 hrs by M7-A7 method; format: functional; conditions: NARSA VRS1, 24 h
Staphylococcus aureus [7] = test: Antimicrobial activity against clinical isolates of multi-resistant/methicillin-resistant Staphylococcus aureus after 24 hrs by M7-A7 method; format: functional
Staphylococcus aureus [8] = test: Antimicrobial activity against glycopeptide-intermediate Staphylococcus aureus NRS17 after 24 hrs by M7-A7 method; format: functional; conditions: NRS17, 24 h
Enterococcus faecium [9] = test: Antimicrobial activity against multidrug resistant and high level vancomycin resistant Enterococcus faecium ATCC 51559 after 24 hrs by M7-A7 method; format: functional; conditions: ATCC 51559, 24 h
Staphylococcus aureus [10] = test: Antimicrobial activity against methicillin-susceptible Staphylococcus aureus ATCC 25923 assessed as membrane burst at 16 times MIC after 3 hrs by transmission electron microscopic analysis; format: functional, organism-based
Klebsiella pneumoniae [11] = test: Antimicrobial activity against Klebsiella pneumoniae ATCC 13883 after 24 hrs by M7-A7 method; format: functional; conditions: ATCC 13883, 24 h
Escherichia coli [12] = test: Antimicrobial activity against Escherichia coli ATCC 25922 after 24 hrs by M7-A7 method; format: functional; conditions: ATCC 25922, 24 h
Enterococcus faecalis [13] = test: Antimicrobial activity against clinical isolates of high level vancomycin-resistant Enterococcus faecalis after 24 hrs by M7-A7 method; format: functional
Staphylococcus aureus [14] = test: Antimicrobial activity against vancomycin-resistant Staphylococcus aureus NARSA VRS4 after 24 hrs by M7-A7 method; format: functional; conditions: NARSA VRS4, 24 h
Staphylococcus aureus [15] = test: Antimicrobial activity against methicillin-resistant Staphylococcus aureus ATCC 43300 after 24 hrs by M7-A7 method; format: functional; conditions: ATCC 43300, 24 h
Staphylococcus aureus [16] = test: Antimicrobial activity against vancomycin-resistant Staphylococcus aureus NARSA VRS10 after 24 hrs by M7-A7 method; format: functional; conditions: NARSA VRS10, 24 h
Klebsiella pneumoniae [17] = test: Antimicrobial activity against NDM-1 positive Klebsiella pneumoniae BAA-2146 after 24 hrs by M7-A7 method; format: functional; conditions: ATCC BAA-2146, 24 h
Streptococcus pneumoniae [18] = test: Antimicrobial activity against multidrug resistant Streptococcus pneumoniae ATCC 700677 after 24 hrs by M7-A7 method; format: functional; conditions: ATCC 700677, 24 h
Staphylococcus aureus [19] = test: Antimicrobial activity against glycopeptide-intermediate Staphylococcus aureus NRS1 after 24 hrs by M7-A7 method; format: functional; conditions: NRS1, 24 h
Escherichia coli [20] = test: Antimicrobial activity against Escherichia coli ATCC 25922 after 20 hrs by microdilution assay; format: functional
Klebsiella pneumoniae [21] = test: Antimicrobial activity against NDM-1 positive Klebsiella pneumoniae BAA-2146 after 20 hrs by microdilution assay; format: functional
Staphylococcus aureus [22] = test: Antimicrobial activity against methicillin-susceptible Staphylococcus aureus ATCC 25923 after 20 hrs by microdilution assay; format: functional; conditions: ATCC 25923, 20 h
Acinetobacter baumannii [23] = test: Antimicrobial activity against Acinetobacter baumannii […] after 20 hrs by microdilution assay; format: functional
Staphylococcus aureus [24] = test: Antimicrobial activity against glycopeptide-intermediate Staphylococcus aureus NRS1 after 20 hrs by microdilution assay; format: functional; conditions: NRS1, 20 h
Pseudomonas aeruginosa [25] = test: Antimicrobial activity against Pseudomonas aeruginosa ATCC 27853 after 20 hrs by microdilution assay; format: functional
Staphylococcus aureus [26] = test: Antimicrobial activity against methicillin-resistant Staphylococcus aureus ATCC 43300 after 20 hrs by microdilution assay; format: functional; conditions: ATCC 43300, 20 h
[27] = Cytotoxicity against human HepG2 cells after 24 hrs by MTT assay; format: cell-based
Staphylococcus aureus [28] = test: Antimicrobial activity against vancomycin-resistant Staphylococcus aureus NARSA VRS4 after 20 hrs by microdilution assay; format: functional; conditions: NARSA VRS4, 20 h
Staphylococcus aureus [29] = test: Antimicrobial activity against glycopeptide-intermediate Staphylococcus aureus NRS17 after 20 hrs by microdilution assay; format: functional; conditions: NRS17, 20 h
Staphylococcus aureus [30] = test: Antimicrobial activity against vancomycin-resistant Staphylococcus aureus NARSA VRS10 after 20 hrs by microdilution assay; format: functional; conditions: NARSA VRS10, 20 h
Streptococcus pneumoniae [31] = test: Antimicrobial activity against multidrug resistant Streptococcus pneumoniae ATCC 700677 after 20 hrs by microdilution assay; format: functional; conditions: ATCC 700677, 20 h
Staphylococcus aureus [32] = test: Antimicrobial activity against clinical isolates of multi-resistant/methicillin-resistant Staphylococcus aureus after 20 hrs by microdilution assay; format: functional
Enterococcus faecium [33] = test: Antimicrobial activity against multidrug resistant and high level vancomycin resistant Enterococcus faecium ATCC 51559 after 20 hrs by microdilution assay; format: functional; conditions: ATCC 51559, 20 h
Klebsiella pneumoniae [34] = test: Antimicrobial activity against multidrug resistant Klebsiella pneumoniae ATCC 700603 after 20 hrs by microdilution assay; format: functional
Staphylococcus aureus [35] = test: Antimicrobial activity against clinical isolates of methicillin-resistant Staphylococcus aureus after 20 hrs by microdilution assay; format: functional
Enterococcus faecalis [36] = test: Antimicrobial activity against clinical isolates of high level vancomycin-resistant Enterococcus faecalis after 20 hrs by microdilution assay; format: functional
[37] = Cytotoxicity against HEK293 cells after 24 hrs by MTT assay; format: cell-based; conditions: human
Staphylococcus aureus [38] = test: Antimicrobial activity against vancomycin-resistant Staphylococcus aureus NARSA VRS1 after 20 hrs by microdilution assay; format: functional; conditions: NARSA VRS1, 20 h
Klebsiella pneumoniae [39] = test: Antimicrobial activity against Klebsiella pneumoniae ATCC 13883 after 20 hrs by microdilution assay; format: functional
Staphylococcus aureus [40] = test: Antimicrobial activity against methicillin-susceptible Staphylococcus aureus ATCC 25923 after 24 hrs by M7-A7 method; format: functional; conditions: ATCC 25923, 24 h

Compound | MIC (Klebsiella pneumoniae [2]) | MIC (Acinetobacter baumannii [3]) | MIC (Staphylococcus aureus [4]) | MIC (Pseudomonas aeruginosa [5]) | MIC (Staphylococcus aureus [6]) | MIC (Staphylococcus aureus [7]) | MIC (Staphylococcus aureus [8]) | MIC (Enterococcus faecium [9]) | MIC (Klebsiella pneumoniae [11]) | MIC (Escherichia coli [12]) | MIC (Enterococcus faecalis [13]) | MIC (Staphylococcus aureus [14]) | MIC (Staphylococcus aureus [15]) | MIC (Staphylococcus aureus [16]) | MIC (Klebsiella pneumoniae [17]) | MIC (Streptococcus pneumoniae [18]) | MIC (Staphylococcus aureus [19]) | MIC (Acinetobacter baumannii [23]) | further results
CCCCCCCCCCC(NC(=O)C(CCCCCCCCCC)NC(=O)C(CCCCN)NC(=O)C(CCCCN)NC(C)=O)C(=O)NC(CCCCNC(C)=O)C(=O)NCC(N)=O (stereo not drawn) (Ac-KK[ξGly(decyl)][ξGly(decyl)]K(Ac)G-NH2; configuration not given here) | > 15 µM | 7.5 µM (≈ 7.03 µg/mL) | 11.3 µM (≈ 10.6 µg/mL) | 7.5 µM (≈ 7.03 µg/mL) | 1.9 µM (≈ 1.78 µg/mL) | 3.8 µM (≈ 3.56 µg/mL) | 2.8 µM (≈ 2.62 µg/mL) | 2.8 µM (≈ 2.62 µg/mL) | 15 µM (≈ 14.1 µg/mL) | 15 µM (≈ 14.1 µg/mL) | 1.9 µM (≈ 1.78 µg/mL) | 2.8 µM (≈ 2.62 µg/mL) | 1.9 µM (≈ 1.78 µg/mL) | 2.8 µM (≈ 2.62 µg/mL) | > 15 µM | 3.8 µM (≈ 3.56 µg/mL) | 1.9 µM (≈ 1.78 µg/mL) | – | Stability [1]: Stable; Activity (Staphylococcus aureus [10]): Active
CCCCCCCCCCC(NC(=O)C(CCCCCCCCCC)NC(=O)C(CCCCNC(=O)C(N)CCCCN)NC(=O)C(N)CCCCN)C(N)=O (stereo not drawn) (H-KK(Lys)[ξGly(decyl)][ξGly(decyl)]-NH2; configuration not given here) | – | – | – | – | – | – | – | – | – | – | – | – | – | – | – | – | – | > 30 µM | MIC (Escherichia coli [20]; ATCC 25922, 20 h): 30 µM (≈ 23.9 µg/mL); MIC (Klebsiella pneumoniae [21]; ATCC BAA-2146, 20 h): > 30 µM; MIC (Staphylococcus aureus [22]): 0.06 µM (≈ 0.0478 µg/mL); MIC (Staphylococcus aureus [24]): 0.1 µM (≈ 0.0796 µg/mL); MIC (Pseudomonas aeruginosa [25]; ATCC 27853, 20 h): 30 µM (≈ 23.9 µg/mL); MIC (Staphylococcus aureus [26]): 0.1 µM (≈ 0.0796 µg/mL); CC50 at 24 h [27]: ≥ 15 µM; MIC (Staphylococcus aureus [28]): 0.2 µM (≈ 0.159 µg/mL); MIC (Staphylococcus aureus [29]): 0.1 µM (≈ 0.0796 µg/mL); MIC (Staphylococcus aureus [30]): 0.1 µM (≈ 0.0796 µg/mL); MIC (Streptococcus pneumoniae [31]): 0.2 µM (≈ 0.159 µg/mL); MIC (Staphylococcus aureus [32]): 0.1 µM (≈ 0.0796 µg/mL); MIC (Enterococcus faecium [33]): 0.2 µM (≈ 0.159 µg/mL); MIC (Klebsiella pneumoniae [34]; Klebsiella pneumoniae, 700603, 20 h): > 30 µM; MIC (Staphylococcus aureus [35]): 0.1 µM (≈ 0.0796 µg/mL); MIC (Enterococcus faecalis [36]): 0.2 µM (≈ 0.159 µg/mL); CC50 at 24 h [37]: > 15 µM; MIC (Staphylococcus aureus [38]): 0.1 µM (≈ 0.0796 µg/mL); MIC (Klebsiella pneumoniae [39]; ATCC 13883, 20 h): > 30 µM
CCCCCCCCCCC1NC(=O)C(CCCCCCCCCC)NC(=O)C(CCCCN)NC(=O)C(CCCCN)NC(=O)CCC(=O)NCCCCC(C(=O)NCC(N)=O)NC1=O (stereo not drawn) (KK[ξGly(decyl)][ξGly(decyl)]KG-NH2; linker N-5 via Suc; configuration not given here) | > 30 µM | 15 µM (≈ 14 µg/mL) | 1.4 µM (≈ 1.31 µg/mL) | 30 µM (≈ 28.1 µg/mL) | 0.7 µM (≈ 0.655 µg/mL) | 1.9 µM (≈ 1.78 µg/mL) | 0.9 µM (≈ 0.842 µg/mL) | 0.3 µM (≈ 0.281 µg/mL) | > 30 µM | ≥ 30 µM | 0.2 µM (≈ 0.187 µg/mL) | 0.5 µM (≈ 0.468 µg/mL) | 0.5 µM (≈ 0.468 µg/mL) | 0.9 µM (≈ 0.842 µg/mL) | > 30 µM | 0.9 µM (≈ 0.842 µg/mL) | 1.2 µM (≈ 1.12 µg/mL) | – | MIC (Staphylococcus aureus [40]): 0.5 µM (≈ 0.468 µg/mL)
COLISTIN | – | – | – | – | – | – | – | – | – | – | – | – | – | – | – | – | – | 0.04 µM | MIC (Escherichia coli [20]): 0.02 µM; MIC (Klebsiella pneumoniae [21]; ATCC BAA-2146): 0.04 µM; MIC (Pseudomonas aeruginosa [25]): 0.09 µM; MIC (Klebsiella pneumoniae [34]): 0.04 µM; MIC (Klebsiella pneumoniae [39]): 0.04 µM
